Measurements published in patent US7803803B2, “Tetrahydrofuro[3,2-B] pyrrol-3-ones as cathepsin K inhibitors” (Amura Therapeutics Limited, priority 2007, dated 2010).

Legend:
[1] = LogD determinations; type: physicochemical; conditions: Ion-count method; for logD at 1 h: 1-octanol/phosphate buffered saline, pH 7.4, pH 7.4
Description: LogD(PBS) determinations were performed in 96 well microtitre plates using a miniaturised “shake-flask” method. […] The plates were then capped and mixed vigorously for 1 hour on a microtitre plate shaker, after which they were left to stand, allowing the PBS and octanol phases to separate. The PBS layer was analysed by reverse phase HPLC with mass spectrometric detection, using single ion monitoring of the [M+H]^+ species.
Where AUCstd and AUCpbs are the peak areas from the standard and test ion chromatograms respectively.

[2] = Plasma incubations (human plasma stability); type: in vitro ADME; conditions: 37° C. Also: tested at 25 µM.
Description: Aliquots were removed at 2 and 60 minutes and quenched with an equal volume of cold acetonitrile. After mixing vigorously, the precipitated protein matter was removed by filtration (Multiscreen Solvinert filter plates, Millipore, Bedford, Mass., USA) and the filtrate analysed by reverse phase HPLC with mass spectrometric detection, using single ion monitoring of the [M+H]^+ species. Metabolic turnover was determined by comparison of peak areas from the ion chromatograms of the parent compound at 2 and 60 minutes and expressed as percent remaining at 1 hour.

[3] = system: human osteoclasts; conditions: human osteoclast, literature value; cited from earlier work
[4] = biological target: T1, cathepsin K (Homo sapiens, UniProt P43235); test: In vitro cathepsin Ki inhibition measurements; type: biochemical; design: purchased B. Turk, Josef Stefan Institute, Ljubljana, Slovenia; conditions: human recombinant cathepsin K; read-out: In vitro Ki (nM) vs Cath K
T1 sequence (P43235 115-329): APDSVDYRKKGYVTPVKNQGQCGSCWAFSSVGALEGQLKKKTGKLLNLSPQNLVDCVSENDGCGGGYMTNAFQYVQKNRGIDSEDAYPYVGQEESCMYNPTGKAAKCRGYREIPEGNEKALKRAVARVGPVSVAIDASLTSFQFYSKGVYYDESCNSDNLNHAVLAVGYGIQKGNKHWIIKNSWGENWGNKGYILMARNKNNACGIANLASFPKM
Description: Stock solutions of substrate or inhibitor were made up to 10 mM in 100% dimethylsulfoxide (DMSO) (Rathburns, Glasgow, U.K.) and diluted as appropriately required. In all cases the DMSO concentration in the assays was maintained at less than 1% (vol./vol.). The equilibrium inhibition constants (Ki^SS) for each compound were measured under steady-state conditions monitoring enzyme activity as a function of inhibitor concentration. The values were calculated on the assumption of pure competitive behaviour (Cornish-Bowden, A. Fundamentals of enzyme kinetics Portland Press; 1995, 93-128). Human recombinant cathepsin K (0.25 nM final; B. Turk, Josef, Stefan Institute, Ljubljana, Slovenia), was routinely assayed in 100 mM sodium acetate; pH 5.5 containing 1 mM EDTA, 10 mM L-cysteine and 1.8 μM Z-Leu-Arg-AMC ([S]═KM).
The apparent inhibition constant (Ki) for each compound was determined on the basis that inhibition was reversible and occurred by a pure-competitive mechanism. The Ki values were calculated, from the dependence of enzyme activity as a function of inhibitor concentration, by direct regression analysis (Prism v 3.02) using Equation 2 (Cornish-Bowden, A., 1995).
In situations where the apparent dissociation constant (Ki^app) approached the enzyme concentrations, the Ki^app values were calculated using a quadratic solution in the form described by Equation 3 (Morrison, J. F. Trends Biochem. Sci., 7, 102-105, 1982; Morrison, J. F. Biochim. Biophys. Acta, 185, 269-286, 1969; Stone, S. R. and Hofsteenge, J. Biochemistry, 25, 4622-4628, 1986).
Curves were fitted by non-linear regression analysis (Prism) using a fixed value for the enzyme concentration. Equation 4 was used to account for the substrate kinetics, where ‘Ki’ is the inhibition constant, ‘[So]’ is the initial substrate concentration and ‘KM^app’ is the apparent macroscopic binding (Michaelis) constant for the substrate (Morrison, 1982).

[5] = UV method, literature value; cited from earlier work
[6] = system: human osteoclasts; test: Human osteoclast resorption assay; type: cell-based; conditions: Homo sapiens, Osteoclast, 48 h, 1 □ M, read-out: Cell-based % Inh. @ 1 □ M Human
Description: Bone resorption was studied using a model where human osteoclast precursor cells were cultured on bovine bone slices for 9 days and allowed to differentiate into bone-resorbing osteoclasts. The formed mature osteoclasts were then allowed to resorb bone. The assay was performed by Pharmatest Services Ltd, Itäinen Pitkakatu 4C, Turku, Finland. After the culture period, bone collagen degradation products were quantified from the culture medium as an index of bone resorption. Inhibitor compounds were added into the cell cultures after the differentiation period and their effects on the resorbing activity of mature osteoclasts were determined. The studies included a baseline group without added compounds and a positive control group where a potent cathepsin K inhibitor E-64 was added.
Human peripheral blood monocytes were suspended to culture medium and allowed to attach to bovine bone slices. The bone slices were transferred into 96-well tissue culture plates containing culture medium with appropriate amounts of important growth factors favouring osteoclast differentiation, including M-CSF, RANK-ligand and TGF-[…]. The cells were incubated in a CO2 incubator in humidified atmosphere of 95% air and 5% carbon dioxide at 37° C. At day 7 when osteoclast differentiation was complete, the culture medium was replaced with culture medium containing conditions favouring osteoclast activity. The cell culture was continued for an additional 2 days, during which the formed mature osteoclasts were allowed to resorb bone in the presence of vehicle, control inhibitor (E64) or test compounds. At the end of the culture, bone collagen degradation products released into the culture medium were determined using a commercially available ELISA method (CrossLaps® for culture, Nordic Bioscience, Herlev, Denmark) as an index of bone resorption (see Bagger, Y. Z. et al, J. Bone. Miner. Res. 14 (suppl. 1), S370).

| Compound | logD at 1 h [1] | Human Plasma Stability % rem. @ 1 h [2] [%] | Cell-based % Inh. @ 1 □ M Human (Lit.) [3] | Ki [4] [nM] | LogD pH 7.4 (Lit.) [5] | inhibition at 1 µM [6] [%] | LogD pH 7.4 ([1]; pH 7.4) |
| --- | --- | --- | --- | --- | --- | --- | --- |
| CC(C)C[C@H](NC(=O)c1ccc(C(C)(C)C)cc1)C(=O)N1CC[C@H]2OCC(=O)[C@H]21 [reference compound] | 1.36 | 75 | Lit. 60% |  |  |  |  |
| CC(C)C[C@H](NC(=O)c1ccc(N2CCN(C)CC2)cc1)C(=O)N1CC[C@H]2OCC(=O)[C@H]21 [reference compound] | 0.56 | 95 |  | 8.7 | 0.04 |  |  |
| COCCN1CCN(c2ccc(C(=O)N[C@@H](CC(C)C)C(=O)N3C[C@H](O)[C@H]4OCC(=O)[C@H]43)cc2)CC1 [Example 25, N—((S)-1-((3aS,6S,6aS)-6-hydroxy-3-oxodihydro-2H-furo[3,2-b]pyrrol-4(5H,6H,6aH)-yl)-4-methyl-1-oxopentan-2-yl)-4-(4-(2-methoxyethyl)piperazin-1-yl)benzamide] |  | 92 |  | 6.9 |  | 25 to 54 | 0.56 |
